Test results taken from patent US20250381165A1, “Method of Use for Benzofuran Compounds” (Tampa Bay Research Institute, Inc., priority 2024, published 2025).

What was measured:
[1] = system: CD45+/MHC II/CD11c+ splenocytes; test: In vivo SIINFEKL loading, flow cytometry of splenocytes; set-up: species or system C57BL/6NCrl mice; details: CD45+/MHC II/CD11c+ population
Protocol: Since the oral route of drug delivery is preferred, various doses of BzFβ (1, 2, 4 mg) were administered by oral gavage, immediately following an iv injection of 50 μg SIINFEKL peptide. One-hour post-treatment the blood and spleens from each mouse was collected. Blood samples were processed as described above. Spleens were collected in 4 mL of Hanks Balanced Salt Solution (HBSS) and converted to a single cell suspension using sterile pouches and a Steward Stomacher 80 Biomaster Blender (Fisher Scientific, cat. no. 14-285-27). The resulting cell suspension was pelleted and suspended in 4 mL freshly prepared red blood cell lysis buffer (150 mM NH4Cl, 10 mM NaHCO3, 0.1 mM EDTA in sterile distilled H2O) for 1-3 minutes. The splenocytes were pelleted and filtered through […] EASY strainer filters (USA Scientific, cat. no. 5654-2070). The cell count was determined using the MUSE cell viability kit (MCH600103) and MUSE Cell Analyzer (Luminex Corp, Austin TX).
For peptide loading, splenocytes were prepared to 5×10^5/mL in cRPMI, then 100 μL of cells was added to wells of clear round-bottom 96 well tissue culture plates. […] Cells were gated based on live single-cell populations and positives were assessed using isotype controls and fluor-minus-one analysis when needed. Data were analyzed using the Attune NxT software or FlowJo versions 10.7 and 10.8.

[2] = system: MHC class I H-2Kb on DC2.4; test: MHC class I recovery after acid stripping of DC2.4; type: cell-based, murine
Protocol: To determine if BzFβ affects synthesis or cycling of the MHC class I molecules, the class I molecule/peptide complexes were stripped from the surface of DC2.4 cells using a citric acid buffer, then treated with 25 μg/mL BzFβ, 5 mM of the dipeptide GL, or 3 μg/mL BFA (see Example 4) as a negative control.
An acid wash to strip the cell surface of MHC class I was performed as described with modifications. (Montealegre, et al., Dissociation of β2-microglobulin determines the surface quality control of major histocompatibility complex class I molecules. FASEB. 2015 July; 29(7):2780-8). DC2.4 were incubated overnight at 37° C. at 1×10^5. Cells were washed for 2 min in acidic buffer [(pH 2.5) 465 mM Citric acid, 35 mM sodium citrate, in PBS with 1% v/v FBS] or neutral buffer [(pH 7.4) PBS with 1% v/v FBS]. Afterwards the pH was neutralized by the addition of cDMEM. The cells were washed with PBS and treated with BzFβ or GL in cDMEM for various times to allow for MHC class I recovery at 37° C. Cells were washed and stained with an H-2Kb-specific antibody (Invitrogen, cat. no. 12-5958-82) and analyzed by flow cytometry as described previously
MHC I recovery on the cell surface at various time points was detected by flow cytometry using the PE-labeled MHC class I H-2Kb specific antibody (AF6-88.5.5.3). […] At 6 hours >60% of the MHC class I molecules recovered, seen in FIG. 14.

[3] = system: IMG; test: CellTiter-Glo cell viability, IMG; type: cell-based, murine; details: Mus musculus
Protocol: BzFβ was then examined for its effect on the viability of several murine and human cell lines and primary murine splenocytes. The cytotoxicity of BzFβ was assessed using the CellTiter-Glo […] assay system according to manufacturer's instructions to determine BzFβ's effect on the viability of several murine and human cell lines and primary murine splenocytes.
DC2.4 cell line (Dr. Kenneth Rock, University of Massachusetts), RAW 264.7 cell line (American Type Culture Collection (ATCC), Manassas, VA; TIB 71), and IMG cell line (Millipore™, Merck KGaA, Burlington, MA; cat. no. SC-C134) were each cultured in complete Dulbecco's Modified Eagle Medium (cDMEM) containing […] glucose (Gibco™, Thermo Fisher Scientific Inc., Waltham, MA; cat. no. 10566-016) and supplemented with GlutaMAX, 50 U/mL penicillin and 50 µg/mL streptomycin (Gibco™; cat. no. 15070-063) and 10% heat inactivated fetal bovine serum (FBS) (R&D Systems, Inc., Minneapolis, MN; cat. no. […]
The cytotoxicity of BzFβ was assessed using the CellTiter-Glo cell […] viability assay system […] cat. no. […] CellTiter-Glo was added 1:1 in the media and the level of chemiluminescence was measured using luminescence at wavelengths of 200 nm to 700 nm through a photomultiplier on BioTek's Synergy HTX multimode microplate reader. […]

O=C(O)/C=C/c1ccc2occc2c1 [BzFβ, (2E)-3-(1-benzofuran-5-yl)prop-2-enoic acid]
cells co-expressing MHCI bound SIINFEKL [1]: significantly more of these cells
MHC class I recovery after acid stripping ([2]; 25 μg/mL BzFβ or 5 mM GL during recovery, 4-24 h): did not show an increase in MHC class I recovery
B3Z response post acid-stripping ([2]; treated during recovery, data not shown): still able to increase the B3Z response
IC50 [3]: 316 µM
